Experimental findings from patent publication US20110263697A1, “Methods of Reducing Oxidative Modification of a Muscle Cell Protein” (STOKELY-VAN CAMP, INC., priority 2010, published 2011) are described below.

The subject of the assay is myosin heavy chain (MHC) protein in C2C12 myotubes. Kind of assay: Muscle cell assay: oxidative modification of myosin heavy chain protein after electrical pulse stimulation (OXYBLOT). The format is cell-based, Mouse. Here is the method: Mouse C2C12 myoblasts were purchased from American Type Culture Collection (ATCC; Manassas, Va.) and grown to 90% confluence in high glucose Dubecco's Modified Eagle media (DMEM) with 10% fetal bovine serum (FBS). Myoblasts from the purchased lot were grown in T75 flasks and passaged >5 times prior to plating in collagen coated six-well plates for experimentation. To induce myotube differentiation FBS was replaced with 2% horse serum for 5 days. Myoblasts were grown and myotubes were maintained without antibiotics in a 37° C., 5% CO2 incubator. Western blot analysis for myosin heavy chain (MHC) protein indicated expression by day five with maintenance of steady state protein levels through day eight of differentiation. Electrical pulsing was applied to the myotubes using a C-Pace EP Cell Culture Stimulator (IonOptix; Milton, Mass.). Cells were stimulated to visibly and repetitively contract for 90 minutes at a pulse frequency of 0.5 Hz and a pulse duration of 24 ms. Immediately prior to stimulation, day old media was removed and replaced with 5 ml of fresh differentiation media. Myotubes were lysed and proteins were derivatized to 2,4-dinitrophenylhydrazone (DNP; OXYBLOT method). […] Protein bands were visualized and quantified with a Bio-Rad Chemidoc XRS system. […]

Regarding `Cc1c(C)c2c(c(C)c1O)CCC(C)(C(=O)O)O2` (centres unmarked) [TROLOX, 6-hydroxy-2,5,7,8-tetramethylchroman-2-carboxylic acid], for the setting “1 mM TROLOX pre-treatment approx. 18 h prior and again immediately before EPS, 90 min EPS at 0.5 Hz, 24 ms, five independent experiments, FIG. 4”, the “Oxidative modification of MHC protein reduced (% of EPS alone)” value is on record as 42±15%. Also, for the setting “incubated with 1 mM TROLOX and subjected to electrical pulse stimulation”, the “Oxidative modification of myosin heavy chain protein compared to electrical pulse stimulation alone (FIG. 4)” value is “reduced oxidative modification”.
